Values joined by “and” are separate entries in the source; they are usually repeats but may differ in a detail not shown here. Equal values may be shown once. Inconclusive results and toxic doses are left out.
Tested on: P388 leukemia ip, CD2F1 mice, survival T/C
Assay: NCI In Vivo Anticancer Drug Screen. Data for tumor model P388 Leukemia (intraperitoneal) in CD2F1 (CDF1) mice
Settings: endpoint: median survival time, higher = longer survival
Summary of the method: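 Mice carrying the transplanted tumor received test compound or vehicle. Survival was recorded in each group, and the value is the treated-group measurement divided by that of the vehicle-treated control group.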

Cc1[nH]c(=O)[nH]c(=O)c1N(CCF)CCCl
T/C (dose: 0.5 mg/kg/injection, schedule: Q03HX024 (ip), vehicle: acid diluted with saline): 101 % of control | T/C (dose: 1.0 mg/kg/injection, schedule: Q03HX016 (ip), vehicle: acid diluted with saline): 100 % of control | T/C (dose: 1.0 mg/kg/injection, schedule: Q03HX024 (ip), vehicle: acid diluted with saline): 105 % of control | T/C (dose: 1.8 mg/kg/injection, schedule: Q01DX009 (ip), vehicle: saline with Tween-80): 109 % of control | T/C (dose: 2.0 mg/kg/injection, schedule: Q01DX009 (ip), vehicle: acid diluted with saline): 110 % of control | T/C (dose: 2.0 mg/kg/injection, schedule: Q01DX009 (sc), vehicle: acid diluted with saline): 101 % of control | T/C (dose: 2.0 mg/kg/injection, schedule: Q03HX008 (ip), vehicle: acid diluted with saline): 105 % of control | T/C (dose: 2.0 mg/kg/injection, schedule: Q03HX016 (ip), vehicle: acid diluted with saline): 105 % of control | T/C (dose: 2.0 mg/kg/injection, schedule: Q03HX024 (ip), vehicle: acid diluted with saline): 108 % of control | T/C (dose: 2.0 mg/kg/injection, schedule: Q03HX024 (oral), vehicle: acid diluted with saline): 109 % of control | T/C (dose: 2.0 mg/kg/injection, schedule: Q03HX024 (oral), vehicle: other): 107 % of control | T/C (dose: 3.0 mg/kg/injection, schedule: Q01DX009 (ip), vehicle: saline with Tween-80): 109 % of control | T/C (dose: 4.0 mg/kg/injection, schedule: Q01DX005 (ip), vehicle: Klucel (hydroxypropylcellulose) (HPC)): 121 % of control | T/C (dose: 4.0 mg/kg/injection, schedule: Q01DX005 (iv), vehicle: Klucel (hydroxypropylcellulose) (HPC)): 102 % of control | T/C (dose: 4.0 mg/kg/injection, schedule: Q01DX009 (ip), vehicle: acid diluted with saline): 101 % of control | T/C (dose: 4.0 mg/kg/injection, schedule: Q01DX009 (sc), vehicle: acid diluted with saline): 103 % of control | T/C (dose: 4.0 mg/kg/injection, schedule: Q03HX008 (ip), vehicle: acid diluted with saline): 105 % of control | T/C (dose: 4.0 mg/kg/injection, schedule: Q03HX008 (oral), vehicle: other): 105 % of control | T/C (dose: 4.0 mg/kg/injection, schedule: Q03HX016 (oral), vehicle: other): 100 % of control | T/C (dose: 4.0 mg/kg/injection, schedule: Q03HX024 (ip), vehicle: acid diluted with saline): 112 % of control | T/C (dose: 4.0 mg/kg/injection, schedule: Q03HX024 (oral), vehicle: acid diluted with saline): 100 % of control | T/C (dose: 4.0 mg/kg/injection, schedule: Q03HX024 (oral), vehicle: other): 108 % of control | T/C (dose: 4.0 mg/kg/injection, schedule: Q04DX003 (ip), vehicle: acid diluted with saline): 106 % of control | T/C (dose: 5.0 mg/kg/injection, schedule: Q01DX009 (ip), vehicle: saline with Tween-80): 109 % of control | T/C (dose: 6.25 mg/kg/injection, schedule: Q04DX003 (ip), vehicle: saline): 104 % of control | T/C (dose: 8.0 mg/kg/injection, schedule: Q01DX001 (ip), vehicle: acid diluted with saline): 109 % of control | T/C (dose: 8.0 mg/kg/injection, schedule: Q01DX001 (ip), vehicle: saline): 118 % of control | T/C (dose: 8.0 mg/kg/injection, schedule: Q01DX005 (iv), vehicle: Klucel (hydroxypropylcellulose) (HPC)): 119 % of control | T/C (dose: 8.0 mg/kg/injection, schedule: Q01DX009 (ip), vehicle: acid diluted with saline): 116 % of control | T/C (dose: 8.0 mg/kg/injection, schedule: Q01DX009 (oral), vehicle: acid diluted with saline): 109 % of control | T/C (dose: 8.0 mg/kg/injection, schedule: Q01DX009 (oral), vehicle: other): 115 % of control | T/C (dose: 8.0 mg/kg/injection, schedule: Q01DX009 (sc), vehicle: acid diluted with saline): 108 % of control | T/C (dose: 8.0 mg/kg/injection, schedule: Q03HX008 (ip), vehicle: acid diluted with saline): 103 % of control | T/C (dose: 8.0 mg/kg/injection, schedule: Q03HX008 (oral), vehicle: acid diluted with saline): 109 % of control | T/C (dose: 8.0 mg/kg/injection, schedule: Q03HX008 (oral), vehicle: other): 106 % of control | T/C (dose: 8.0 mg/kg/injection, schedule: Q03HX016 (ip), vehicle: acid diluted with saline): 105 % of control | T/C (dose: 8.0 mg/kg/injection, schedule: Q03HX016 (oral), vehicle: acid diluted with saline): 100 % of control | T/C (dose: 8.0 mg/kg/injection, schedule: Q03HX016 (oral), vehicle: other): 106 % of control | T/C (dose: 8.0 mg/kg/injection, schedule: Q03HX024 (oral), vehicle: acid diluted with saline): 104 % of control | T/C (dose: 8.0 mg/kg/injection, schedule: Q03HX024 (oral), vehicle: other): 115 % of control | T/C (dose: 8.0 mg/kg/injection, schedule: Q04DX003 (ip), vehicle: acid diluted with saline): 112 % of control | T/C (dose: 8.0 mg/kg/injection, schedule: Q08DX002 (ip), vehicle: acid diluted with saline): 100 % of control | T/C (dose: 12.5 mg/kg/injection, schedule: Q04DX003 (ip), vehicle: saline): 122 % of control | T/C (dose: 16.0 mg/kg/injection, schedule: Q01DX001 (ip), vehicle: acid diluted with saline): 103 % of control and 118 % of control and 122 % of control | T/C (dose: 16.0 mg/kg/injection, schedule: Q01DX001 (ip), vehicle: saline): 122 % of control | T/C (dose: 16.0 mg/kg/injection, schedule: Q01DX001 (sc), vehicle: acid diluted with saline): 100 % of control | T/C (dose: 16.0 mg/kg/injection, schedule: Q01DX005 (iv), vehicle: Klucel (hydroxypropylcellulose) (HPC)): 121 % of control | T/C (dose: 16.0 mg/kg/injection, schedule: Q01DX009 (ip), vehicle: acid diluted with saline): 150 % of control | T/C (dose: 16.0 mg/kg/injection, schedule: Q01DX009 (oral), vehicle: acid diluted with saline): 113 % of control | T/C (dose: 16.0 mg/kg/injection, schedule: Q01DX009 (oral), vehicle: other): 115 % of control | T/C (dose: 16.0 mg/kg/injection, schedule: Q01DX009 (sc), vehicle: acid diluted with saline): 123 % of control | T/C (dose: 16.0 mg/kg/injection, schedule: Q03HX008 (ip), vehicle: acid diluted with saline): 106 % of control | T/C (dose: 16.0 mg/kg/injection, schedule: Q03HX008 (oral), vehicle: acid diluted with saline): 109 % of control | T/C (dose: 16.0 mg/kg/injection, schedule: Q03HX008 (oral), vehicle: other): 106 % of control | T/C (dose: 16.0 mg/kg/injection, schedule: Q03HX016 (ip), vehicle: acid diluted with saline): 105 % of control | T/C (dose: 16.0 mg/kg/injection, schedule: Q03HX016 (oral), vehicle: acid diluted with saline): 109 % of control | T/C (dose: 16.0 mg/kg/injection, schedule: Q03HX024 (oral), vehicle: acid diluted with saline): 109 % of control | T/C (dose: 16.0 mg/kg/injection, schedule: Q03HX024 (oral), vehicle: other): 100 % of control | T/C (dose: 16.0 mg/kg/injection, schedule: Q04DX003 (ip), vehicle: acid diluted with saline): 108 % of control | T/C (dose: 16.0 mg/kg/injection, schedule: Q04DX003 (oral), vehicle: acid diluted with saline): 113 % of control | T/C (dose: 16.0 mg/kg/injection, schedule: Q04DX003 (oral), vehicle: other): 111 % of control | T/C (dose: 16.0 mg/kg/injection, schedule: Q08DX002 (ip), vehicle: acid diluted with saline): 101 % of control | T/C (dose: 23.0 mg/kg/injection, schedule: Q01DX009 (ip), vehicle: saline with Tween-80): 150 % of control | T/C (dose: 25.0 mg/kg/injection, schedule: Q04DX003 (ip), vehicle: saline): 163 % of control | T/C (dose: 32.0 mg/kg/injection, schedule: Q01DX001 (ip), vehicle: acid diluted with saline): 103 % of control | T/C (dose: 32.0 mg/kg/injection, schedule: Q01DX001 (ip), vehicle: saline): 154 % of control | T/C (dose: 32.0 mg/kg/injection, schedule: Q01DX001 (oral), vehicle: other): 106 % of control | T/C (dose: 32.0 mg/kg/injection, schedule: Q01DX001 (sc), vehicle: acid diluted with saline): 99 % of control | T/C (dose: 32.0 mg/kg/injection, schedule: Q01DX009 (ip), vehicle: acid diluted with saline): 158 % of control | T/C (dose: 32.0 mg/kg/injection, schedule: Q01DX009 (oral), vehicle: acid diluted with saline): 118 % of control | T/C (dose: 32.0 mg/kg/injection, schedule: Q03HX008 (ip), vehicle: acid diluted with saline): 107 % of control | T/C (dose: 32.0 mg/kg/injection, schedule: Q03HX016 (oral), vehicle: acid diluted with saline): 109 % of control | T/C (dose: 32.0 mg/kg/injection, schedule: Q04DX003 (ip), vehicle: acid diluted with saline): 123 % of control | T/C (dose: 32.0 mg/kg/injection, schedule: Q04DX003 (oral), vehicle: acid diluted with saline): 109 % of control | T/C (dose: 32.0 mg/kg/injection, schedule: Q04DX003 (oral), vehicle: other): 108 % of control | T/C (dose: 32.0 mg/kg/injection, schedule: Q08DX002 (ip), vehicle: acid diluted with saline): 101 % of control | T/C (dose: 32.0 mg/kg/injection, schedule: Q08DX002 (oral), vehicle: other): 114 % of control | T/C (dose: 64.0 mg/kg/injection, schedule: Q01DX001 (ip), vehicle: saline): 159 % of control | T/C (dose: 64.0 mg/kg/injection, schedule: Q01DX001 (oral), vehicle: acid diluted with saline): 109 % of control | T/C (dose: 64.0 mg/kg/injection, schedule: Q01DX001 (oral), vehicle: other): 108 % of control | T/C (dose: 64.0 mg/kg/injection, schedule: Q01DX001 (sc), vehicle: acid diluted with saline): 100 % of control | T/C (dose: 64.0 mg/kg/injection, schedule: Q04DX003 (oral), vehicle: acid diluted with saline): 109 % of control | T/C (dose: 64.0 mg/kg/injection, schedule: Q04DX003 (oral), vehicle: other): 124 % of control | T/C (dose: 64.0 mg/kg/injection, schedule: Q08DX002 (oral), vehicle: acid diluted with saline): 109 % of control | T/C (dose: 64.0 mg/kg/injection, schedule: Q08DX002 (oral), vehicle: other): 115 % of control | T/C (dose: 128.0 mg/kg/injection, schedule: Q01DX001 (oral), vehicle: acid diluted with saline): 109 % of control | T/C (dose: 128.0 mg/kg/injection, schedule: Q01DX001 (sc), vehicle: acid diluted with saline): 99 % of control | T/C (dose: 128.0 mg/kg/injection, schedule: Q01DX009 (oral), vehicle: acid diluted with saline): 118 % of control | T/C (dose: 128.0 mg/kg/injection, schedule: Q08DX002 (oral), vehicle: acid diluted with saline): 100 % of control | T/C (dose: 256.0 mg/kg/injection, schedule: Q01DX001 (oral), vehicle: acid diluted with saline): 109 % of control | T/C (dose: 256.0 mg/kg/injection, schedule: Q01DX001 (sc), vehicle: acid diluted with saline): 100 % of control | T/C (dose: 256.0 mg/kg/injection, schedule: Q04DX003 (oral), vehicle: acid diluted with saline): 118 % of control | T/C (dose: 256.0 mg/kg/injection, schedule: Q08DX002 (oral), vehicle: acid diluted with saline): 104 % of control | T/C (dose: 512.0 mg/kg/injection, schedule: Q01DX001 (oral), vehicle: acid diluted with saline): 113 % of control | T/C (dose: 512.0 mg/kg/injection, schedule: Q08DX002 (oral), vehicle: acid diluted with saline): 109 % of control
